Experimental findings from ChEMBL document CHEMBL3526040, “Immune-mediated agranulocytosis caused by the cocaine adulterant levamisole: a case for reactive metabolite(s) involvement” (Drug Metab Dispos, 2012) are described below.

A short description of series [1]: Renal clearance in male human at 150 mg, po. The note with it: in vivo.
Series [2] is described as follows: Renal clearance in female human at 150 mg, po. The note with it: in vivo.
Series [3] can be described thus: Oral bioavailability in human at 150 mg. The note with it: in vivo.
Series [4] is described as follows: Oral bioavailability in male human at 150 mg. Conditions: in vivo.
Series [5] in a line: Oral bioavailability in female human at 150 mg. The note with it: in vivo.
A short description of series [6]: Renal excretion in human at 150 mg, po. Conditions: urine.
Series [7] can be described thus: Half life in blood (unknown origin).
Series [8] can be described thus: Plasma clearance in human at 150 mg, po.
The nature of series [9]: Plasma clearance in male human at 150 mg, po.
Series [10] can be described thus: Plasma clearance in female human at 150 mg, po.
Series [11] can be described thus: Elimination half life in human at 150 mg, po. Conditions: in vivo.
The nature of series [12]: Elimination half life in male human at 150 mg, po. The note with it: in vivo.
A short description of series [13]: Elimination half life in female human at 150 mg, po. Conditions: in vivo.
Series [14] is described as follows: Volume of distribution at steady state in dog at 10 mg/kg, iv. Conditions: in vivo.
Series [15] in a line: AUC in human at 150 mg, po. The note with it: plasma.
The nature of series [16]: AUC in male human at 150 mg, po. Conditions: plasma.
Series [17] is described as follows: AUC in female human at 150 mg, po. Conditions: plasma.
Series [18] in a line: Cmax in human at 150 mg, po. The note with it: in vivo.
Series [19] can be described thus: Cmax in male human at 150 mg, po. Conditions: in vivo.
The nature of series [20]: Cmax in female human at 150 mg, po. Conditions: in vivo.
Series [21] in a line: Tmax in human at 150 mg, po. The note with it: in vivo.
Series [22] can be described thus: Tmax in male human at 150 mg, po. The note with it: in vivo.
Series [23] in a line: Tmax in female human at 150 mg, po. Conditions: in vivo.
Series [24] is described as follows: Renal clearance in human at 150 mg, po. The note with it: in vivo.
Series [25] can be described thus: in vivo. Conditions: dog, po, 10 mg/kg.
Description: Oral bioavailability in fasted dog at 10 mg/kg
Series [26] is described as follows: in vivo. The note with it: dog, po, 10 mg/kg. The source holds these as a separate data set.
Description: Oral bioavailability in fed dog at 10 mg/kg
Series [27] in a line: in vivo. The note with it: dog, plasma, iv, 10 mg/kg.
Description: Plasma clearance in dog at 10 mg/kg, iv
Series [28] in a line: in vivo. The note with it: dog, iv, 10 mg/kg.
Description: Elimination half life in dog at 10 mg/kg, iv
A short description of series [29]: in vivo. Conditions: dog, po, 10 mg/kg. The source holds these as a separate data set.
Description: Elimination half life in fasted dog at 10 mg/kg, po
The nature of series [30]: in vivo. The note with it: dog, po, 10 mg/kg. This is another data set of the same source.
Description: Elimination half life in fed dog at 10 mg/kg, po
The nature of series [31]: in vivo. Conditions: dog, plasma, iv, 10 mg/kg. This is another data set of the same source.
Description: AUC in dog at 10 mg/kg, iv
Series [32] in a line: in vivo. The note with it: dog, plasma, po, 10 mg/kg.
Description: AUC in fasted dog at 10 mg/kg, po
The nature of series [33]: in vivo. The note with it: dog, plasma, po, 10 mg/kg. The source holds these as a separate data set.
Description: AUC in fed dog at 10 mg/kg, po
Series [34] in a line: in vivo. Conditions: dog, po, 10 mg/kg. This is another data set of the same source.
Description: Cmax in fasted dog at 10 mg/kg, po
The nature of series [35]: in vivo. The note with it: dog, po, 10 mg/kg. This is another data set of the same source.
Description: Cmax in fed dog at 10 mg/kg, po
Series [36] in a line: in vivo. The note with it: dog, po, 10 mg/kg. This is another data set of the same source.
Description: Tmax in fasted dog at 10 mg/kg, po
Series [37] in a line: in vivo. Conditions: dog, po, 10 mg/kg. The source holds these as a separate data set.
Description: Tmax in fed dog at 10 mg/kg, po
Series [38] in a line: Drug excretion in human urine treated with [3H]-levamisole at 150 mg, po. Conditions: in vivo. The class given is ADME, tissue-based.

As a reminder, the bioavailability is dose-corrected exposure relative to a reference, in per cent. Low readings indicate little systemic uptake, high ones much systemic uptake. For orientation: half-life means the time in which the quantity being followed falls by half. In general, CL/F refers to the apparent clearance, not corrected for the fraction that reaches the circulation. The Vd is the apparent volume that relates the amount in the body to the concentration in plasma or blood. Broadly, the AUC is the area under the concentration-time curve, a measure of exposure. Low values mean low exposure, high ones high exposure. A word on the Cmax: it is the maximum level reached in the sampled fluid or tissue. A word on the Tmax: it is the time at which the peak concentration occurs. By clearance is commonly meant the volume of plasma or blood freed of the substance per unit of time. Turning to `c1ccc([C@H]2CN3CCSC3=N2)cc1` [LEVAMISOLE], the CL renal in [1] is 31 mL/min; in series [2] it was 25 mL/min; in [24] it was 29.2 mL/min. Moreover, the bioavailability was 62.5% in series [3]; 61.5% in series [4]; 64.7% in series [5]; 64% in “in vivo [25]”; 44% in the series “in vivo [26]”. In series [6], this molecule displayed a dose excreted of 3%. Besides, the half-life in series [7] is below 6 h; in [11], 5.6 h; in [12] it was 5.4 h; in [13], 5.9 h; in the series “in vivo [28]”, 1.8 h; in “in vivo [29]”, 1.3 h. In “in vivo [30]”, this molecule showed a half-life of 1.6 h. The CL/F amounted to 8.04 mL/min/kg in [8], 8.25 mL/min/kg in [9] and 7.56 mL/min/kg in [10]. The molecule also yielded a Vd in [14] of 1.42 L/kg. Also, the AUC in [15] turned out to be 3070 ng·h/mL; in [16] it was 3070 ng·h/mL; in series [17] it was 3070 ng·h/mL; in the series “in vivo [31]”, 18100 ng·h/mL; in “in vivo [32]”, 12200 ng·h/mL; in “in vivo [33]” it was 8940 ng·h/mL. Also, the Cmax in series [18] is 717 ng/mL; in series [19], 672 ng/mL; in series [20], 820 ng/mL; in the series “in vivo [34]”, 3330 ng/mL; in the series “in vivo [35]”, 1980 ng/mL. For the same molecule, the time of peak concentration (Tmax) in [21] turned out to be 1.5 h; in series [22], 1.7 h; in series [23], 1.1 h; in the series “in vivo [36]” it was 1.8 h; in the series “in vivo [37]” it was 4.5 h. In the series “in vivo [27]”, the clearance is 8.92 mL/min/kg.

The molecule `Oc1ccc([C@H]2CN3CCSC3=N2)cc1` returned a Drug excretion in [38] of 25%.

In [38], `O=C(O)[C@H]1O[C@@H](Oc2ccc([C@H]3CN4CCSC4=N3)cc2)[C@H](O)[C@@H](O)[C@@H]1O` yielded a Drug excretion of 25%.
